Where two headings read alike, the source gives them in different places.
Columns and labels:
[1] = Caco-2 cell monolayer membrane transport assay (Papp and recovery); format: in vitro ADME; conditions: human, Caco-2, Caco-2, A-B
Text: Caco-2 Cell Monolayer Membrane Transport Assay
(§3) Human-derived colorectal adenocarcinoma cell line Caco-2 cell monolayer model was used to study the bidirectional transport of the target compounds from the apical (AP) side to the basolateral (BL) side and from BL side to AP side. HPLC was used for quantitative analysis to calculate transport parameters, apparent permeability coefficient (Papp) and the efflux ratio.

A2780 ovarian cancer = assay: MTT proliferation inhibition, A2780; format: cell-based; conditions: Homo sapiens, A2780, read-out: Proliferation inhibition rate, A2780 Ovarian cancer
Text: (§1) 1. Cytotoxicity Assay Using Human Tumor Cell Lines
(§2) Paclitaxel was used as the positive drug.

[2] = In vivo oral bioavailability assay in rats; conditions: rat; for AUC(0-t): 0-24 hours; for MRT inf: read-out: MRT0-∞
Text: The compound PCMI-08 was synthesized and detected according to the methods provided in the present invention. The internal standard, paclitaxel, was purchased from China's National Institute for the Control of Pharmaceutical and Biological Products (NICPBP). Chromatography-grade acetonitrile was purchased from Sigma-Aldrich Inc. Tween 80 and ethyl acetate were purchased from Aladdin reagent Inc. Male S.D. rats were purchased from Beijing Weitonglihua Inc. and raised in animal house for two weeks.
200 mg of PCMI-08 was dissolved in 4 ml of a mixed solution of Tween 80 and anhydrous ethanol (1:1) to prepare a stock solution at 50 mg/ml and normal saline was added to adjust to a suitable concentration. 12 male S.D. rats (300 g of body weight) were taken and divided into two groups after overnight fasting. One group was treated with intravenous injection (5 mg/kg) and the other group was treated orally (60 mg/kg). Blood was sampled in the intravenous group at 0th min, 5th min, 10th min, 20th min, 40th min, 1st h, 2nd h, 4th h, 6th h, 8th h, 12th h, 24th h, while the oral group at 5th min, 15th min, 30th min, 45th min, 1st h, 2nd h, 4th h, 6th h, 8th h, 12th h, 24th h. After 10 min centrifugation of plasma at 4500 rpm, the upper serum was taken and transferred to the corresponding EP tube, placed in a −40° C. freezer for assay.
Agilent 1100 series configuration: Agilent G1313A HPLC autosampler device, 150 mm×2.1 mm C18 Thermo column (particle size 3 μm) reversed-phase column, detection wavelength at 230 nm, column temperature at 30° C., mobile phase of acetonitrile/water (7:3), a flow rate at 0.2 ml/min, injection volume of 20 μl. The mass spectrometry (MS) combined was Thermo Finnigan TSQ Quantum triple quadrupole configurated with electrospray ionization (ESI) in the positive ion mode. The parameters of MS analysis were as follows: spray chamber voltage, 4.0 kv; heated capillary temperature, 350° C.; protective gas (nitrogen); 20 psi; auxiliary gas (nitrogen): 5 psi; collision gas (argon); pressure: 1.5 mmTorr.; Collision energy: CA 17 eV; FA and IFA were 19 eV; IS was 15 eV.
Paclitaxel was selected as an internal standard with a retention time of 3.07 min. Retention time of PCMI-08 was 5.13 min. MS detection condition to PCMI-08 was set as follows: 957→901 m/z; paclitaxel as an internal standard. Detection conditions: 876→308 m/z. The concentration range of the standard curve of PCMI-08 was 5-10,000 ng/ml (γ^2>0.99) and the minimum detection limit was 5 ng/ml.
100 μL of plasma samples were taken, into which 100 μL of the internal standard (paclitaxel, 500 ng/ml acetonitrile solution) was added, followed by addition of 3 ml of ethyl acetate after well homogenized via vortex, after 5 min shaking, centrifuging for 8 min at a rotating speed of 4500 rpm. The supernatant was transferred to a clean EP tube with nitrogen to blow to dry under heating condition. After reconstitution with 120 μL mobile phase (CH3CN/H2O=7:3), the solution was centrifuged at 12,000 rpm for 3 min, 100 μl of supernatant was taken and transferred to an autosampler vial. After LC-MS/MS detection, statistical data and pharmacokinetic parameters were processed by Xcalibur® (version 1.3) software (Thermo Finnigan).

HT-29 colon cancer = assay: MTT proliferation inhibition, HT-29; format: cell-based; conditions: Homo sapiens, HT-29, read-out: Proliferation inhibition rate, HT29 Colon cancer
Text: as §1, §2

[3] = tested on: A549 non-small cell lung cancer; assay: MTT proliferation inhibition, A549; format: cell-based; conditions: Homo sapiens, A549, read-out: Proliferation inhibition rate, A549 Non-small cell lung cancer
Text: as §1, §2

BGC-823 gastric cancer = assay: MTT proliferation inhibition, BGC-823; format: cell-based; conditions: Homo sapiens, BGC-823, read-out: Proliferation inhibition rate, BGC-823 Gastric cancer
Text: as §1, §2

[4] = tested on: MCF-7 breast cancer cells; assay: MTT proliferation inhibition, MCF-7; format: cell-based; conditions: Homo sapiens, MCF7, read-out: Proliferation inhibition rate, MCF-7 Breast cancer
Text: as §1, §2

Du145 prostate cancer = assay: MTT proliferation inhibition, Du145; format: cell-based; conditions: Homo sapiens, DU-145, read-out: Proliferation inhibition rate, DU145 Prostate cancer
Text: as §1, §2

Caco-2 cell monolayer = assay: Caco-2 bidirectional transport, efflux ratio; conditions: Caco-2 cell line (21 days)
Text: as §3

HCT 116 colon cancer = assay: MTT proliferation inhibition, HCT 116; format: cell-based; conditions: Homo sapiens, HCT-116, read-out: Proliferation inhibition rate, HCT 116 Colon cancer
Text: as §1, §2

[5] = tested on: NCI-H460 non-small cell lung cancer; assay: MTT proliferation inhibition, NCI-H460; format: cell-based; conditions: Homo sapiens, NCI-H460, read-out: Proliferation inhibition rate, NCI-H460 Non-small cell lung cancer
Text: as §1, §2

LNCaP prostate cancer = assay: MTT proliferation inhibition, LNCaP; format: cell-based; conditions: Homo sapiens, read-out: Proliferation inhibition rate, LNCaP Prostate cancer
Text: as §1, §2

Hela cervical cancer = assay: MTT proliferation inhibition, HeLa; format: cell-based; conditions: Homo sapiens, read-out: Proliferation inhibition rate, HeLa Uterin cancer
Text: as §1, §2

[6] = tested on: MDA-MB-436 breast cancer cells; assay: MTT proliferation inhibition, MDA-MB-436; format: cell-based; conditions: Homo sapiens, MDA-MB-436, read-out: Proliferation inhibition rate, MDA-MB-436 Breast cancer
Text: as §1, §2

[7] = male, Sprague-Dawley, plasma, intravenous administration 5 mg/kg
[8] = male, Sprague-Dawley, plasma, oral administration 60 mg/kg

Q: Which results are given for CO[C@H]1C[C@H]2OC[C@@]2(OC(C)=O)[C@H]2[C@H](OC(=O)c3ccccc3)[C@]34OC(=O)O[C@H]3[C@H](OC(=O)[C@H](O)[C@@H](NC(=O)OC(C)(C)C)c3ccccc3)C(C)=C([C@@H](OC(=O)N(C)C)C(=O)[C@]12C)C4(C)C [PCMI-08]?
A: Papp A→B ([1]; Mean, read-out: Papp A-B, Mean): > 10 ×10⁻⁶ cm/s; recovery ([1]; Mean, read-out: Recovery rate in mass, Mean): 99.4%; Papp A→B ([1]; Sample-01, read-out: Papp A-B, Sample-01): 19.5 ×10⁻⁶ cm/s; recovery ([1]; Sample-01, read-out: Recovery rate in mass, Sample-01): 102%; Papp A→B ([1]; Sample-02, read-out: Papp A-B, Sample-02): 17.3 ×10⁻⁶ cm/s; recovery ([1]; Sample-02, read-out: Recovery rate in mass, Sample-02): 97%; inhibition at 1 µM (A2780 ovarian cancer): 92.5%; half-life ([2]; male, Sprague-Dawley, plasma, other: intravenous and oral (summary over both arms), route not specified, read-out: half-life (converted)): ~10 h; AUC(0-inf) [2, 7]: 4050 ± 1860 ng·h/mL; Cmax [2, 7]: 11000 ± 2680 ng/mL; Tmax [2, 7]: 0 h; AUC(0-t) [2, 7]: 3440 ± 1480 ng·h/mL; MRT inf [2, 7]: 10.1 ± 2.6 h; half-life ([2]; male, Sprague-Dawley, plasma, intravenous administration 5 mg/kg, read-out: t1/2 (converted)): 10.2 ± 1.72 h; AUC(0-inf) [2, 8]: 32000 ± 8540 ng·h/mL; Cmax [2, 8]: 2120 ± 454 ng/mL; Tmax [2, 8]: 3 ± 1.1 h; AUC(0-t) [2, 8]: 25300 ± 6150 ng·h/mL; MRT inf [2, 8]: 15.2 ± 1.71 h; half-life ([2]; male, Sprague-Dawley, plasma, oral administration 60 mg/kg, read-out: t1/2 (converted)): 10.4 ± 1.14 h; bioavailability ([2]; male, Sprague-Dawley, plasma, oral, 60 mg/kg, oral 60 mg/kg vs intravenous 5 mg/kg, read-out: F, absolute oral bioavailability): 65.8%; F, absolute oral bioavailability ([2]; oral 60 mg/kg vs intravenous 5 mg/kg): 65.79%; mean retention time ([2]; route not specified): ≥ 10 h; inhibition at 1 µM (HT-29 colon cancer): 81.7%; inhibition at 1 µM [3]: 68.1%; inhibition at 1 µM (BGC-823 gastric cancer): 80.8%; inhibition at 1 µM [4]: 81.3%; inhibition at 1 µM (Du145 prostate cancer): 86.7%; Papp A-B (Caco-2 cell monolayer; A-B): 16.40 10^−6 cm/s; Papp B-A (Caco-2 cell monolayer; B-A): 33.48 10^−6 cm/s; efflux ratio (Caco-2 cell monolayer; Papp B-A/Papp A-B): 2.04; inhibition at 1 µM (HCT 116 colon cancer): 58.7%; inhibition at 1 µM [5]: 85.2%; inhibition at 1 µM (LNCaP prostate cancer): 84.3%; inhibition at 1 µM (Hela cervical cancer): 97.3%; inhibition at 1 µM [6]: 65.7%

Source: patent US9890175B2, “Taxane compound, and preparation method and use thereof” (JIANGSU TASLY DIYI PHARMACEUTICAL CO., LTD., priority 2013, dated 2018)
